The results in this text go back to ChEMBL document CHEMBL5120818, “Discovery and Biosynthesis of Antimicrobial Phenethylamine Alkaloids from the Marine Flavobacterium Tenacibaculum discolor sv11” (2022).

Holding throughout (type): functional
One assay has as its system Caenorhabditis elegans. As to the kind of experiment: Antihelminthic activity against Caenorhabditis elegans N2 assessed as reduction in worm motility measured after 2 days by binocular dissecting microscopy. The settings on record: N2, 48 h, time 2 day.
Another assay deals with Bacillus subtilis. As to the kind of experiment: Antibacterial activity against Bacillus subtilis DSM10 measured after 18 hrs by micro broth dilution assay. Background: In broth dilution the organism is exposed to a series of concentrations in liquid medium.
Assay [1] relates to Escherichia coli. As to the kind of experiment: Antibacterial activity against Escherichia coli ATCC25922 measured after 18 hrs by micro broth dilution assay.
For a further assay, the system named is Listeria monocytogenes. Put plainly: Antibacterial activity against Listeria monocytogenes DSM20600 measured after 48 hrs by BacTiter-glo assay.
The next assay deals with Aspergillus flavus. Put plainly: Antifungal activity against Aspergillus flavus ATCC9170 measured after 24 hrs by BacTiter-glo assay.
For a further assay, the system named is Candida albicans. As to the kind of experiment: Antifungal activity against Candida albicans FH2173 measured after 48 hrs by BacTiter-glo assay.
Assay [2] concerns Mycolicibacterium smegmatis. Put plainly: Antibacterial activity against Mycobacterium smegmatis ATCC607 measured after 48 hrs by BacTiter-glo assay.
The next assay deals with Staphylococcus aureus. Put plainly: Antibacterial activity against Staphylococcus aureus ATCC25923 measured after 18 hrs by micro broth dilution assay.
For assay [3], the system named is Escherichia coli. Put plainly: Antibacterial activity against delta tolC deficient Escherichia coli ATCC25922 measured after 18 hrs by micro broth dilution assay.

On to `CCCC1=[N+](CCc2ccccc2)C(C)(CCC(=O)c2ccccc2N)C(NCCc2ccccc2)=C1` (centres undefined), for which the MIC in the assay on Caenorhabditis elegans was 64 µg/mL; against Bacillus subtilis, 4 µg/mL; against Escherichia coli [1], more than 64 µg/mL; in the assay on Listeria monocytogenes, 4 µg/mL; in the assay with Aspergillus flavus, 16 µg/mL; against Candida albicans it was 16 µg/mL. Besides, the MIC in [2] is 8 µg/mL; in the assay with Staphylococcus aureus it was 8 µg/mL; in the assay with Escherichia coli [3] it was more than 64 µg/mL.
As for `CCCc1n(CCc2ccccc2)c(C)c(C)[n+]1CCc1ccccc1`, the MIC with Caenorhabditis elegans is more than 64 µg/mL; in the assay with Bacillus subtilis, 16 µg/mL; with Escherichia coli [1], more than 64 µg/mL; in the assay on Listeria monocytogenes, more than 64 µg/mL; against Aspergillus flavus, more than 64 µg/mL; against Candida albicans it was more than 64 µg/mL. For the same molecule, the figures for the MIC (in [2]; with Staphylococcus aureus; in the assay with Escherichia coli [3]) were 8 µg/mL, 64 µg/mL and more than 64 µg/mL, respectively.
In the case of `CCCc1n(CCc2ccccc2)c(C)c(CC)[n+]1CCc1ccccc1`, the MIC in the assay with Caenorhabditis elegans was more than 64 µg/mL; against Bacillus subtilis, 32 µg/mL; against Escherichia coli [1], more than 64 µg/mL; against Listeria monocytogenes, more than 64 µg/mL; against Aspergillus flavus it was more than 64 µg/mL; in the assay on Candida albicans, more than 64 µg/mL. The MIC is 8 µg/mL in [2], 64 µg/mL in the assay with Staphylococcus aureus and more than 64 µg/mL in the assay on Escherichia coli [3].
Turning to `CCCc1c(CC)cc(CC)c[n+]1CCc1ccccc1`, the MIC in the assay on Caenorhabditis elegans, in the assay with Bacillus subtilis, in the assay on Escherichia coli [1], with Listeria monocytogenes, in the assay on Aspergillus flavus and in the assay on Candida albicans was more than 64 µg/mL each time. Also, the MIC (in assay [2]; against Staphylococcus aureus; against Escherichia coli [3]) was more than 64 µg/mL throughout.
For `CCCc1cc2n(CCc3ccccc3)cc(-c3ccccc3)cc-2[n+]1CCc1ccccc1`, the MIC stood at 32 µg/mL with Caenorhabditis elegans; 1 µg/mL against Bacillus subtilis; 64 µg/mL with Escherichia coli [1]; 0.5 µg/mL against Listeria monocytogenes; 1 µg/mL in the assay with Aspergillus flavus; 4 µg/mL with Candida albicans. Besides, the MIC worked out at 0.5 µg/mL in assay [2], 0.5 µg/mL with Staphylococcus aureus and 8 µg/mL against Escherichia coli [3].
As for `CCCc1c(C)cn(CCc2ccccc2)c2cc(CCC)[n+](CCc3ccccc3)c1-2`, the MIC in the assay on Caenorhabditis elegans is more than 64 µg/mL; with Bacillus subtilis it was 4 µg/mL; with Escherichia coli [1] it was more than 64 µg/mL; against Listeria monocytogenes, 2 µg/mL; against Aspergillus flavus it was 8 µg/mL; in the assay on Candida albicans, 8 µg/mL. In addition, the MIC in [2] was found to be 4 µg/mL; with Staphylococcus aureus, 4 µg/mL; against Escherichia coli [3] it was 64 µg/mL.
